Laboratory results published in patent US8236819B2, “Dihydro-[1H]-quinolin-2-one derivatives as RXR agonists for the treatment of dyslipidemia, hypercholesterolemia and diabetes” (Janssen Pharmaceutica N.V., priority 2005, dated 2012).
Where “and” joins values, the source holds several entries; their conditions need not be identical. Equal values may be shown once.

Experiments:
[1] = system: ABCA1 mRNA in THP-1 cells; test: ABCA1 bDNA assay (ABCA1 mRNA induction); type: cell-based, human; conditions: for EC50 / Emax: Homo sapiens; for EC50: THP-1, THP-1 cells, ABCA1 mRNA induction; for ABCA1 (% max MX-6054) @3 μM / Emax / ABCA1 (% max MX-6054) @0.3 μM: THP-1 cells, relative to max of MX-6054; for Emax: concentration not given
Experimental: THP-1 cells, a human monocytic cell line, were obtained from ATCC and maintained in RPMI (Gibco) supplemented with 10% fetal bovine serum (Gibco), 2 mM L-glutamine and 1% antibiotic-antimycotic in 5% CO2 at 37° C. For ABCA1 mRNA induction assays, the cells were pelleted and resuspended in RPMI supplemented with 0.5% charcoal treated serum (Hyclone), 2 mM glutamine and 1% antibiotic-antimycotic. The cells were plated at a density of 40,000 cells/90 µl and incubated as above for at least 4 hours before the initiation of treatments. Compounds were prepared as 10 mM stocks in DMSO. For treatments, the compounds were diluted in medium and 10 µl of 10× stocks were added to the cells at a final concentration 0.1% DMSO. The cells were incubated for the desired amount of time (usually 18-24 hrs) and then lyzed with 50 µl of Quantigene HV bDNA lysis buffer which also contained the ABCA1 bDNA probes (probe sequences shown below): […]

[2] = target: T1, RXR (Homo sapiens, UniProt P19793); test: RXR co-transfection assay (GAL4 fusion, luciferase reporter, HEK293 cells); type: cell-based; conditions: for RXR co-transfection (% of 2,4-thiazolidinedione, 5-[[3-(1-ethyl-1,2,3,4-tetrahydro-4,4,6-trimethyl-2-oxo-7-quinolinyl)-4-(trifluoro-methoxy)phenyl]methylene]-, (5Z)-): relative to the reference thiazolidinedione
T1 construct: expressed in transfected cells; host or cells: HEK293
T1 sequence (P19793 227-458 limits assumed): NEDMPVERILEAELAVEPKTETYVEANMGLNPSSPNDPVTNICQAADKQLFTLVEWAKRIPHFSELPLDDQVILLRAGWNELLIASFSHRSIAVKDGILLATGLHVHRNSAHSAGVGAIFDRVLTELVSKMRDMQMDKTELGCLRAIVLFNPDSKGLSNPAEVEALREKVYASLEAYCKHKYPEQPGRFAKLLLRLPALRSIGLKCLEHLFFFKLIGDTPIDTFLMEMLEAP
Experimental: The nucleic acid sequence from 676-1464 bp (accession number X52773) encoding the ligand binding domains was subcloned into the pM vector (BD Biosciences Clontech, Palo Alto, Calif.) and were fused with the DNA binding domain of yeast GAL4. HEK293 cells were cultured in DMEM/F12 medium supplemented with 10% FBS and 1% I-glutamine (growth medium). Cells were seeded at a density of 5-10×10^6 cells in 50 ml of growth medium and left overnight. The medium was removed and the cells were washed with 15 ml of OptiMEM serum free medium (Invitrogen Corp). The cells were transfected using OptiMEM serum free medium and DMRIE transfection reagent (Invitrogen Corp). Approximately 10-30 ng of DNA for the different receptors and 5-10 ng of the luciferase reporter (1:1 ratio for RAR and 4:1 ratio for RXR of receptor DNA:reporter DNA) were gently mixed with 51 µl of DMRIE reagent in a total volume of 17 ml of OptiMEM medium. Eighteen hours after transfection, the cells were washed once with growth medium and then incubated for 6 hrs in 30 ml of growth medium. The cells were then trypsinized, and reseeded at a density of 50,000 per well in 96 well plates and left overnight. The medium was replaced with 90 µl of medium containing DMEM/F12 supplemented with 0.5% charcoal-treated FBS (HyClone; Logan, Utah) and 1% glutamine. Compounds or vehicle were added in 10 µl of 10× concentration of compound or vehicle (0.1% dimethyl sulfoxide). The cells were treated for 16-18 hours, lysed and assayed for luciferase activity using the Steady Glo luciferase assay kit (Promega, Madison, Wis.).

Row | EC50 [1] [nM] | EC50 [2] | RXR co-transfection (% of 2,4-thiazolidinedione, 5-[[3-(1-ethyl-1,2,3,4-tetrahydro-4,4,6-trimethyl-2-oxo-7-quinolinyl)-4-(trifluoro-methoxy)phenyl]methylene]-, (5Z)-) [2] | melting point [°C] | Structure (SMILES) | ABCA1 (% max MX-6054) @3 μM [1] | Emax [1] [%] | ABCA1 (% max MX-6054) @0.3 μM [1]
1 | > 1400 | 144 nM | (108%) | – | Cc1cc2c(cc1-c1cc([C@@H]3C[C@H]3C(=O)O)ccc1OC(F)(F)F)N(C)C(=O)CC2(C)C (racemic) [Compound 42, (□)-2-[3-(1,4,4,6-Tetramethyl-2-oxo-1,2,3,4-tetrahydro-quinolin-7-yl)-4-trifluoromethoxy-phenyl]-cyclopropanecarboxylic acid] | (38% @3 μM) | – | –
2 | > 1000 | 2.9 nM and 7.1 nM | – | – | Cc1cc2c(cc1-c1cc([C@@H]3C[C@H]3C(=O)O)ccc1OC(F)(F)F)N(C(C)C)C(=O)CC2(C)C (racemic) [Compound 43, (□)-2-[3-(1-Isopropyl-4,4,6-trimethyl-2-oxo-1,2,3,4-tetrahydro-quinolin-7-yl)-4-trifluoromethoxy-phenyl]-cyclopropanecarboxylic acid] | (56% @3 μM) | – | –
3 | 1520 | 251 nM and 164 nM | – | – | COc1ccc([C@@H]2C[C@H]2C(=O)O)cc1-c1cc2c(cc1C)C(C)(C)CC(=O)N2C(C)C (racemic) [Compound 44, (□)-2-[3-(1-Isopropyl-4,4,6-trimethyl-2-oxo-1,2,3,4-tetrahydro-quinolin-7-yl)-4-methoxy-phenyl]-cyclopropanecarboxylic acid] | – | 29 | –
4 | – | 57.2 nM and 72.3 nM and 72.4 nM | – | 237 to 241 | CCN1C(=O)CC(C)(C)c2cc(C)c(-c3cc(/C=C/C(=O)O)ccc3OCC(F)(F)F)cc21 [Compound 1, 3-[3-(1-Ethyl-4,4,6-trimethyl-2-oxo-1,2,3,4-tetrahydro-quinolin-7-yl)-4-(2,2,2-trifluoro-ethoxy)-phenyl]-acrylic acid] | – | 60 | –
5 | ~3.6 | 1 nM and 2.5 nM | – | – | CCN1C(=O)CC(C)(C)c2cc(C)c(-c3cc(/C=C/C(=O)O)ccc3OC(F)(F)F)cc21 [Compound 2, 3-[3-(1-Ethyl-4,4,6-trimethyl-2-oxo-1,2,3,4-tetrahydro-quinolin-7-yl)-4-trifluoromethoxy-phenyl]-acrylic acid] | – | 81 | –
6 | 200 | 12.8 nM and 35.8 nM | – | – | Cc1cc2c(cc1-c1cc(/C=C/C(=O)O)ccc1OC(F)(F)F)N(C)C(=O)CC2(C)C [Compound 3, 3-[3-(1,4,4,6-Tetramethyl-2-oxo-1,2,3,4-tetrahydro-quinolin-7-yl)-4-trifluoromethoxy-phenyl]-acrylic acid] | (56% @3 μM) | – | –
7 | 10 | 16.3 nM | (97%) | – | Cc1cc2c(cc1-c1cc(/C=C/C(=O)O)ccc1OC(F)(F)F)N(C(C)C)C(=O)CC2(C)C [Compound 4, 3-[3-(1-Isopropyl-4,4,6-trimethyl-2-oxo-1,2,3,4-tetrahydro-quinolin-7-yl)-4-trifluoromethoxy-phenyl]-acrylic acid] | – | – | (70.3% @0.3 μM)
8 | 100 | 31.7 nM and 24.2 nM | – | – | CCN1C(=O)CC(C)(C)c2cc(C)c(-c3cc(/C=C(\C)C(=O)O)ccc3OC(F)(F)F)cc21 [Compound 9, 3-[3-(1-Ethyl-4,4,6-trimethyl-2-oxo-1,2,3,4-tetrahydro-quinolin-7-yl)-4-trifluoromethoxy-phenyl]-2-methyl-acrylic acid] | – | – | (39.9% @0.3 μM)
9 | 44 | 23.1 nM | (64%) | – | Cc1cc2c(cc1-c1cc(/C=C/C(=O)O)ccc1OCC(F)(F)F)N(C(C)C)C(=O)CC2(C)C [Compound 11, 3-[3-(1-Isopropyl-4,4,6-trimethyl-2-oxo-1,2,3,4-tetrahydro-quinolin-7-yl)-4-(2,2,2-trifluoro-ethoxy)-phenyl]-acrylic acid] | – | – | –
10 | 510 | 71.2 nM and 62.7 nM and 36.7 nM | (85%) | – | COc1ccc(/C=C/C(=O)O)cc1-c1cc2c(cc1C)C(C)(C)CC(=O)N2C(C)C [Compound 12, 3-[3-(1-isopropyl-4,4,6-trimethyl-2-oxo-1,2,3,4-tetrahydro-quinolin-7-yl)-4-methoxy-phenyl]-acrylic acid] | – | 59 | –
11 | 47 | 7.1 nM and 7.3 nM | – | – | CCN1C(=O)CC(C)(C)c2cc(C)c(-c3cc(CCC(=O)O)ccc3OC(F)(F)F)cc21 [Compound 26, 3-[3-(1-Ethyl-4,4,6-trimethyl-2-oxo-1,2,3,4-tetrahydro-quinolin-7-yl)-4-trifluoromethoxy-phenyl]-propionic acid] | – | 56.8 | –
12 | 1 | 3.4 nM | (80%) | – | Cc1cc2c(cc1-c1cc(CCC(=O)O)ccc1OC(F)(F)F)N(C(C)C)C(=O)CC2(C)C [Compound 28, 3-[3-(1-Isopropyl-4,4,6-trimethyl-2-oxo-1,2,3,4-tetrahydro-quinolin-7-yl)-4-trifluoromethoxy-phenyl]-propionic acid] | – | 59 | –
13 | 347 | 46.3 nM and 29.1 nM | – | – | CCN1C(=O)CC(C)(C)c2cc(C)c(-c3cc(C(C)CC(=O)O)ccc3OC(F)(F)F)cc21 (stereo not shown) [Compound 30, 3-[3-(1-Ethyl-4,4,6-trimethyl-2-oxo-1,2,3,4-tetrahydro-quinolin-7-yl)-4-trifluoromethoxy-phenyl]-butyric acid] | – | 160 | –
14 | 369 | 59.6 nM and 12.6 nM and 37.2 nM | – | – | Cc1cc2c(cc1-c1cc(CCC(=O)O)ccc1OCC(F)(F)F)N(C(C)C)C(=O)CC2(C)C [Compound 31, 3-[3-(1-Isopropyl-4,4,6-trimethyl-2-oxo-1,2,3,4-tetrahydro-quinolin-7-yl)-4-(2,2,2-trifluoro-ethoxy)-phenyl]-propionic acid] | – | 45 | –
15 | 886 | ~50.9 nM and 27.2 nM | – | – | CCN1C(=O)CC(C)(C)c2cc(C)c(-c3cc(/C=C\C(=O)O)ccc3OC(F)(F)F)cc21 [Compound 58, 3-[3-(1-Ethyl-4,4,6-trimethyl-2-oxo-1,2,3,4-tetrahydro-quinolin-7-yl)-4-trifluoromethoxy-phenyl]-acrylic acid] | – | 75 | –
